The values below come from patent publication US20060223792A1, “Phenyl and pyridyl LTA4H modulators” (priority 2005, published 2006).

One experiment deals with colitis symptoms. As to conditions: eight weeks of treatment, cotton top tamarins; cited from earlier work.
Experiment [1] has as its system ionophore-induced LTB4 production. As to conditions: oral administration; cited from earlier work.
The test system is the same in experiment [2]. The settings on record: oral administration; cited from earlier work. The source holds these as a separate data set.
In experiment [3] the target is T1, recombinant human LTA4 hydrolase (rhLTA4H) (Homo sapiens, UniProt P09960).
T1 construct: made in house; host or cells: Spodoptera frugiperda (Sf-9) cells, baculovirus (pFastBac1)
T1 sequence (P09960 1-611): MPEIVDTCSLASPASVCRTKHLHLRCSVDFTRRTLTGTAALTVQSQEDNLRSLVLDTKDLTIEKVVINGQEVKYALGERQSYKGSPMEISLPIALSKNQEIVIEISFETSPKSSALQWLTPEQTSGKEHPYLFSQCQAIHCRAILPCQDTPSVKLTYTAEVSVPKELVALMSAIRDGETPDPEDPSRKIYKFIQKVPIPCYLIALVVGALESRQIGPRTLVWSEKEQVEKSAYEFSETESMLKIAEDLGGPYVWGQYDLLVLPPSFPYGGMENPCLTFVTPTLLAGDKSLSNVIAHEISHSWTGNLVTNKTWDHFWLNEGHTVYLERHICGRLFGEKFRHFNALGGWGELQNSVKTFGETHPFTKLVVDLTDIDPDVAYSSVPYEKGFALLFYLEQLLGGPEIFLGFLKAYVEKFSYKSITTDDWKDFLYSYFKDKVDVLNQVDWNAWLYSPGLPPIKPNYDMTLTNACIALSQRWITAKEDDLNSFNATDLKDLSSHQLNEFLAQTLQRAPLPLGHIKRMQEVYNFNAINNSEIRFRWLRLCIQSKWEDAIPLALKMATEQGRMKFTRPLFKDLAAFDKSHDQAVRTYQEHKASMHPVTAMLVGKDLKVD
The experiment in a line: Recombinant human LTA4 hydrolase assay for LTA4 hydrolase inhibitor activity. It counts as biochemical. The settings on record: recombinant human LTA4H, LTB4 quantified by enzyme-linked immunoassay; average of one to three determinations; read-out: IC50. The essentials: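 Sf-9-expressed rhLTA4H (36 ng) preincubated 10 min at rt with compound in 0.1 M potassium phosphate pH 7.4, 5 mg/mL fatty-acid-free BSA; 9 ng LTA4 free acid added, 10 min at rt in 225 μL. LTB4 measured by enzyme immunoassay; IC50 from 4-parameter fit, mean of one to three determinations.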

Experiment [4] relates to ex vivo stimulated LTB4 production. The experiment in a line: Murine arachidonic acid-induced inflammation model: ex vivo stimulated LTB4 production in blood. As to conditions: Mus musculus; 30 mg/kg oral gavage, female Balb/c mice; blood taken 3 h after arachidonic acid, stimulated ex vivo with A23187; read-out: % Inh. LTB4. The protocol:
(§1) Murine Arachidonic Acid-Induced Inflammation Model
(§2) LTA4H inhibitor compounds of the present invention were dissolved in 20% cyclodextran/H2O at a concentration of 3 mg/mL. The solutions were administered by oral gavage to female Balb/c mice weighing approximately 20 grams each (0.2 mL per mouse, 30 mg of LTA4H inhibitor compound per kg). Sixty minutes after being administered an LTA4 inhibitor, each mouse received topical application of 20 μL of arachidonic acid (100 mg/mL in acetone) to the left ear and 20 μL of acetone only to the right ear. After 3 h, the mice were sacrificed, blood was withdrawn in heparinized syringes, and 8 mm ear biopsies were taken. Ear biopsies were weighed to determine edema and then frozen at −80° C. until needed for determination of neutrophil influx.
One hundred-microliter aliquots of heparinized blood were added to wells of a microtiter plate, along with equal volumes of RPMI-1640 medium, and calcium ionophore A23187 was added to each sample well (final concentration=[…]). The microtiter plate contents were incubated for 10 min at 37° C. in a humidified incubator. The reaction was terminated by centrifugation (833×g, 10 min at 4° C.). Supernatants were analyzed for LTB4 by a commercially available enzyme-linked immunoassay (Cayman Chemical Co.) in accordance with the manufacturer's instructions. The percent inhibition of ex vivo stimulated LTB4 production (% Inh. LTB4) was determined by comparison to animals treated identically except that the solution admininstered by oral gavage was devoid of inhibitor compound.

The subject of experiment [5] is neutrophil influx (myeloperoxidase, MPO). The experiment in a line: Murine arachidonic acid-induced inflammation model: neutrophil influx in ear (myeloperoxidase activity). As to conditions: Mus musculus, po, 3 h, read-out: % Inh. MPO. Type of experiment: in vivo, female Balb/c mice. The protocol:
as §1, §2
Neutrophil influx was quantified by measuring the activity of myeloperoxidase (MPO), a neutrophil-specific enzyme. The ear biopsies were homogenized in 0.5 mL extraction buffer (0.3 M sucrose, 0.22% (w/v) hexadecyl trimethyl ammonium bromide (CTAB), and 2.5 mM citrate prepared from 0.5 M citrate stock solution (pH 5.0)). Debris was removed by centrifugation at 14000×g for 10 min. Aliquots of 10 μL of the resulting supernatant were added to wells of a microtiter plate, along with 90-μL aliquots of dilution buffer (10 mM citrate, 0.22% CTAB), followed by addition of 20 μL TMB liquid substrate system (Sigma Chemical Co.) to each sample well. The microtiter plate contents were held at rt for 1 h. The reaction was stopped by addition of 100 μL 1 M H2SO4 to each sample well, and the myeloperoxidase activity in each sample was determined from the absorbance at 405 nm. The background value from the right ear, treated only with acetone, was subtracted from that for the left ear, treated with arachidonic acid in acetone, for each animal. The percent inhibition of neutrophil influx (% lnh. MPO) by compounds of the invention was determined by comparison to animals treated identically, except that the solution administered by oral gavage was devoid of inhibitor compound.

`CN(CCCOc1ccc(Cc2ccccc2)cc1)CCC(=O)O.Cl` [SC57461]: the colitis symptoms entry with colitis symptoms is “significantly improved colitis symptoms”. In addition, the “inhibition of ionophore-induced LTB4 production in mouse blood ex vivo” value in experiment [1] is on record as “caused inhibition”. Besides, the “inhibition of ionophore-induced LTB4 production in rat peritoneum in vivo” value in experiment [2] is reported as “caused inhibition”.

`CCCCN(CCCC)CCOc1ccc(OC(=O)Nc2ccccc2)cc1` [Example 48, Phenyl-carbamic acid 4-(2-dibutylamino-ethoxy)-phenyl ester]: in experiment [3], the concentration for half-maximal inhibition (IC50) was 9 nM. For the same compound, the inhibition at 30 mg/kg in experiment [4] is 69%. Besides, the inhibition in vivo at 30 mg/kg in experiment [5] was 66%.

Turning to `O=C(Nc1ccccc1)Oc1ccc(CCN2CCCCC2)cc1` [Example 52, Phenyl-carbamic acid 4-(2-piperidin-1-yl-ethyl)-phenyl ester], the IC50 in experiment [3] stood at 3 nM. The inhibition at 30 mg/kg in experiment [4] came to 80%. Further, in experiment [5], the inhibition in vivo at 30 mg/kg is 87%.

The term IC50 denotes the concentration at which inhibition is half-maximal.
